Laboratory results: patent US12286418B2, “Compounds and methods for treating or preventing bacterial infections” (priority 2019, dated 2025)
Several values for one entry are separate records, joined by “and”; a condition that tells them apart may be missing. Identical values can stand only once. Entries after “also recorded” stand apart in the source; their conditions may differ. Like-named read-outs stand apart in the source and are kept apart here. Values belong to the molecule of their own block, whether it stands above or below them.

Assays:
OXA-48 = OXA-48 (Klebsiella pneumoniae, UniProt Q6XEC0); assay: OXA-48 inhibition assay using nitrocefin as reporter; assay type: biochemical; design: His-tag (N, cleaved yes); made in house; host or cells: E. coli BL21(DE3), pET28a; settings: for potency/activity against OXA-48 in words: purified OXA-48, compared with CDD-97 where a derivative
OXA-48, sequence (Q6XEC0 23-265, looked up): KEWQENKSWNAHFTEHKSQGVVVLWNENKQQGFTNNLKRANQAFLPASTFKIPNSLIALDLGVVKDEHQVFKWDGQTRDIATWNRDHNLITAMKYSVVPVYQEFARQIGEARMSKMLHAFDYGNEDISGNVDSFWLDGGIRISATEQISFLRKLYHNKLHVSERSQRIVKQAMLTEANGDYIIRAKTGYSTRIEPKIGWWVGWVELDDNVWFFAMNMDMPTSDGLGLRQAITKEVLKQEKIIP
Experimental: Nitrocefin, a chromogenic β-lactam substrate, was used as a reporter in all inhibition assays with the various OXA enzymes and various compounds. Nitrocefin is not stable in aqueous solution long-term. For these assays, nitrocefin stocks were prepared in DMSO, stored at −20° C. and used within 2 weeks of dissolving. To avoid freeze-thawing, fresh stocks were always used. The Km of nitrocefin was determined prior to inhibition assays by performing steady state kinetics. Assays were performed using a DU800 spectrophotometer at room temperature in 50 mM HEPES pH 7.5, 15 mM NaHCO3, and 0.02% tween 20 buffer. Hydrolyzed nitrocefin was detected at 482 nm. For a single experiment, a series of at least 5 nitrocefin concentrations were tested against the given enzyme in duplicate and the initial velocities were measured and fit to the Michaelis-Menten equation. Experiments were repeated twice, and error reported is the standard error of the mean.
Compounds were tested for inhibition of a given OXA enzyme from hydrolyzing nitrocefin using a Tecan plate reader. […] A control with no compound was included in each run. For each compound concentration, the velocity of nitrocefin hydrolysis was determined at 482 nm and fit to the Morrison equation. […] The average Ki of separate experiments, each of which consisted of duplicate runs, is reported and error was quantified as the standard deviation.
The activity of these derivatives was assessed using inhibition assays with purified OXA-48. Compounds were tested for the ability to inhibit OXA-48 from hydrolyzing nitrocefin, a chromogenic β-lactam substrate routinely used in β-lactamase inhibition assays. Nitrocefin contains a conjugated ring system that is readily hydrolyzed and produces a visible color shift from yellow to red upon hydrolysis (O'Callaghan, et al., 1972, Antimicrob. Agents Chemother. 1:283-288). The rate of nitrocefin hydrolysis in the presence of a constant amount of OXA-48 and increasing concentrations of a given compound of interest was monitored at 482 nm. These rates were plotted against compound concentration to determine the inhibition constant (Ki) against OXA-48. […] SPR was performed using 6×-His-OXA-48 enzyme that was amine-coupled on a Ni-NTA Chip. Meropenem, which covalently binds and inhibits OXA-48, was used as a positive control.

E. coli MG1655OXA-48 = assay: Bacterial susceptibility (MIC, broth microdilution) of E. coli expressing OXA-48; assay type: cell-based; settings: for MIC: Escherichia coli
Experimental: Bacterial susceptibility was specifically tested using minimum inhibitory concentration assays. Susceptibility assays were performed with E. coli strains using broth in a microplate set up. Two-fold dilutions of antibiotic and/or inhibitor were used. For susceptibility tests, bacterial strains were transformed with plasmids containing OXA-48 with its endogenous signal sequence for periplasmic migration (cloned into pTP123 vector) (Majiduddin & Palzkill, 2003, Antimicrob. Agents Chemother. 47:1062-1067). pTP123 was cut with XbaI and SacI and the linearized fragment was assembled using Gibson assembly (New England Biolabs, Ipswich, MA) its signal sequence cloned in by using Gibson assembly. Bacteria were grown in Mueller-Hinton broth with 12.5 μg/mL chloramphenicol (plasmid marker) overnight. An overnight culture was diluted 1:10^4 into the final well solutions (100 uL total) and incubated for 16-18 hours. After incubation, microplates were read using a Tecan plate reader at absorbance 600. Growth was objectively defined as yielding an absorbance ≥2 times the absorbance of the negative control (media and no culture). Experiments were repeated with new bacterial inoculums each time.
Effective β-lactamase inhibitors synergize with β-lactam antibiotics and ultimately lower the minimum inhibitory concentration (MIC) of antibiotic needed to kill the bacteria. MIC studies were performed with ampicillin (AMP), a β-lactam antibiotic readily hydrolyzed by OXA-48, against E. coli strain MG1655 expressing OXA-48 (MG1655OXA-48). The OXA-48 plasmid construct contained the endogenous signal sequence of OXA-48 for secretion to the periplasm, which was expressed under a trc-promoter, allowing leaky expression in the absence of IPTG inducer. All MICs were performed by broth microdilution with 2-fold dilutions of antibiotic and/or inhibitor (FIG. 6A). The ampicillin (AMP) and imipenem (IMP) MICs were separately determined for a range of CDD-97 and avibactam concentrations. […] In the absence of bacteria, the media (Mueller Hinton) gives an absorbance reading of 0.04 so absorbance readings greater than or equal to two-fold the control were considered bacterial growth. […] CDD-97 was tested for its synergistic ability by determining AMP MICs with a range of CDD-97 concentrations (up to 256 μg/ml).
Impermeability of the outer membrane to small molecules is a major challenge for the development of therapeutics for Gram-negative bacterial infections. β-lactamases, including OXA-48, reside in the periplasmic space and so inhibitors must traverse the outer membrane to be effective. To determine whether low permeability caused the poor in vivo activity of CDD-97, an accumulation assay (Richter, et al., 2017, Nature 545:299-304) was performed to quantify the amount of CDD-97 present in E. coli cells after incubation. In the assay, tetracycline was used as a positive control while fusidic acid and clindamycin were used as negative controls (Richter, et al., 2017, Nature 545:299-304). Controls and CDD-97 were separately incubated with wildtype E. coli (MG1655) cells and then these cells were centrifuged through silicone oil to separate free, unaccumulated compound from the cell pellet. Cell lysates were collected by freeze-thawing and analyzed by mass spectrometry to quantify the amount of accumulated compound. Compared to tetracycline, CDD-97 was present in cells at 20-fold lower levels (FIG. 6B). […] The finding that CDD-97 accumulates inefficiently across the outer membrane was also examined by adding sub-lethal concentrations of colistin to the ampicillin/CDD-97 MIC assays. Colistin is known to disrupt the outer membrane and enhance permeability in E. coli. If the outer membrane is a barrier for CDD-97, it was predicted that the addition of sub-lethal concentrations of colistin would enhance the activity of CDD-97 against E. coli. […]

[1] = purified OXA-48, nitrocefin hydrolysis, Morrison fit

Ki (OXA-48; [1]): 18.8 ± 2.5 µM
Molecule: CCOc1ccccc1OCCOc1ncnc(N2CCC(C(=O)O)CC2)n1

Ki (OXA-48; [1]): 29 ± 4 µM
Molecule: CCOc1ccccc1N1CCN(c2ncnc(N3CCC(N)(C(=O)O)CC3)n2)CC1

Molecule: 1-(4-(2-(2-ethoxyphenoxy)ethoxy)-1,3,5-triazin-2-yl)piperidine-4-carboxylic acid [CDD-900]
Ki (OXA-48; [1]): 38.1 µM

Molecule: CC1(C)S[C@@H]2[C@H](NC(=O)[C@H](N)c3ccccc3)C(=O)N2[C@H]1C(=O)O [AMP, ampicillin, reference compound]
MIC (E. coli MG1655OXA-48; MG1655OXA48, read-out: AMP MIC, ampicillin alone, no inhibitor): 512 µg/mL
MIC (E. coli MG1655OXA-48; MG1655OXA48, read-out: AMP MICs, (−) CDD-97, colistin 0 μg/mL): 1020 µg/mL
MIC (E. coli MG1655OXA-48; MG1655OXA48, read-out: AMP MICs, (−) CDD-97, colistin 0.0625 μg/mL): 1020 µg/mL
MIC (E. coli MG1655OXA-48; MG1655OXA48, read-out: AMP MICs, (−) CDD-97, colistin 0.125 μg/mL): 1020 µg/mL
MIC (E. coli MG1655OXA-48; MG1655OXA48, read-out: AMP MICs, (−) CDD-97, colistin 0.25 μg/mL): 512 µg/mL
MIC (E. coli MG1655OXA-48; MG1655OXA48, read-out: AMP MICs, (−) CDD-97, colistin 0.5 μg/mL): 256 µg/mL
MIC (E. coli MG1655OXA-48; MG1655OXA48, read-out: AMP MICs, (−) CDD-97, colistin 1 μg/mL): 256 µg/mL

Molecule: CCOc1ccccc1N1CCN(c2ncnc(N3CCC(C(=O)OC)CC3)n2)CC1 [CDD-95, methyl 1-(4-(4-(2-ethoxyphenyl)piperazin-1-yl)-1,3,5-triazin-2-yl)piperidine-4-carboxylate]
potency/activity against OXA-48 in words (OXA-48): low of activity; also recorded: significant loss of inhibitory activity
Ki (OXA-48; [1]): ≥ 50 µM

Molecule: CCOc1ccccc1N1CCN(c2ncnc(N3CC(F)(C(=O)O)C3)n2)CC1 [CDD-96, 1-(4-(4-(2-ethoxyphenyl)piperazin-1-yl)-1,3,5-triazin-2-yl)-3-fluoroazetidine-3-carboxylic acid]
potency/activity against OXA-48 in words (OXA-48): potency was low

Molecule: CCOc1ccccc1N1CCN(c2ncnc(N3CC(F)(C(=O)NC)C3)n2)CC1 [CDD-147, 1-(4-(4-(2-ethoxyphenyl)piperazin-1-yl)-1,3,5-triazin-2-yl)-3-fluoro-N-methylazetidine-3-carboxamide]
potency/activity against OXA-48 in words (OXA-48): potency was low
Ki (OXA-48; [1]): > 50 µM

Ki (OXA-48; [1]): > 50 µM
Molecule: CCOc1ccccc1N1CCN(c2nc(N3CCC(C(=O)O)CC3)nc(N3CC(F)(C(=O)NC)C3)n2)CC1 [CDD-163, 1-(4-(4-(2-ethoxyphenyl)piperazin-1 yl)-6-(3-fluoro-3-(methylcarbamoyl)azetidin-1-yl)-1,3,5-triazin-2-yl)piperidine-4-carboxylic acid]

Ki (OXA-48; [1]): 1 µM and 0.83 µM
Molecule: O=C(O)C1CCN(c2ncnc(N3CCN(c4ccccc4OCC(F)(F)F)CC3)n2)CC1 [CDD-178, 1-(4-(4-(2-(2,2,2-trifluoroethoxy)phenyl)piperazin-1-yl)-1,3,5-triazin-2-yl)piperidine-4-carboxylic acid]

Ki (OXA-48; [1]): 1.7 µM
Molecule: O=C(O)C1CCN(c2ncnc(N3CCN(c4ccccc4C(F)(F)F)CC3)n2)CC1 [CDD-180, 1-(4-(4-(2-(trifluoromethyl)phenyl)piperazin-1-yl)-1,3,5-triazin-2-yl)piperidine-4-carboxylic acid]

Ki (OXA-48; [1]): 3.23 ± 0.39 µM
Molecule: CS(=O)(=O)c1ccccc1N1CCN(c2ncnc(N3CCC(C(=O)O)CC3)n2)CC1 [CDD-181, 1-(4-(4-(2-(methylsulfonyl)phenyl)piperazin-1-yl)-1,3,5-triazin-2-yl)piperidine-4-carboxylic acid]

Ki (OXA-48; [1]): > 50 µM
Molecule: CN1CCN(c2ncnc(N3CCC(C(=O)O)CC3)n2)CC1 [CDD-187, 1-(4-(4-methylpiperazin-1-yl)-1,3,5-triazin-2-yl)piperidine-4-carboxylic acid]

Ki (OXA-48; [1]): 7.51 ± 0.23 µM
Molecule: CCOc1ccccc1CCNc1ncnc(N2CCC(C(=O)O)CC2)n1 [CDD-375, 1-(4-((2-ethoxyphenethyl)amino)-1,3,5-triazin-2-yl)piperidine-4-carboxylic acid]

Molecule: CCOc1ccccc1N1CCN(c2ncnc(N3CCC(C(N)=O)CC3)n2)CC1 [CDD-553, 1-(4-(4-(2-ethoxyphenyl)piperazin-1-yl)-1,3,5-triazin-2-yl)piperidine-4-carboxamide]
potency/activity against OXA-48 in words (OXA-48): significant loss of inhibitory activity
Ki for OXA-48 inhibition (OXA-48; [1]): No binding

Molecule: CCOc1ccccc1N1CCN(c2ncnc(N3CCNC(C(=O)O)CC3)n2)CC1 (stereo not shown) [CDD-559]
Ki (OXA-48; [1]): 29 µM
fold reduction in potency (OXA-48 Ki) compared to CDD-97 (OXA-48; relative to CDD-97): approximately 50 fold

Molecule: C[C@@H](O)[C@H]1C(=O)N2C(C(=O)O)=C(SCCN=CN)C[C@H]12 [IMP, imipenem, reference compound]
MIC (E. coli MG1655OXA-48; MG1655OXA48, read-out: IMP MIC, imipenem alone, no inhibitor): 0.625 µg/mL

Molecule: NC(=O)[C@@H]1CC[C@@H]2CN1C(=O)N2OS(=O)(=O)O [avibactam, reference compound]
synergy with β-lactam antibiotics (effect on AMP/IMP MIC) in words (E. coli MG1655OXA-48; E. coli expressing OXA-48, CDD-97 up to 256 μg/mL, avibactam up to 4 μg/mL): dose-dependent decrease in both the AMP and IMP MICs
MIC (E. coli MG1655OXA-48; MG1655OXA48, read-out: AMP MIC, with 0.125 μg/mL avibactam): 256 µg/mL
MIC (E. coli MG1655OXA-48; MG1655OXA48, read-out: AMP MIC, with 1 μg/mL avibactam): 32 µg/mL
MIC (E. coli MG1655OXA-48; MG1655OXA48, read-out: AMP MIC, with 2 μg/mL avibactam): 16 µg/mL
MIC (E. coli MG1655OXA-48; MG1655OXA48, read-out: AMP MIC, with 4 μg/mL avibactam): 4 µg/mL
MIC (E. coli MG1655OXA-48; MG1655OXA48, read-out: AMP MIC, with .25 μg/mL avibactam): 128 µg/mL
MIC (E. coli MG1655OXA-48; MG1655OXA48, read-out: AMP MIC, with .5 μg/mL avibactam): 64 µg/mL
MIC (E. coli MG1655OXA-48; MG1655OXA48, read-out: IMP MIC, with 0.125 μg/mL avibactam): 0.312 µg/mL
MIC (E. coli MG1655OXA-48; MG1655OXA48, read-out: IMP MIC, with 1 μg/mL avibactam): 0.156 µg/mL
MIC (E. coli MG1655OXA-48; MG1655OXA48, read-out: IMP MIC, with 2 μg/mL avibactam): 0.156 µg/mL
MIC (E. coli MG1655OXA-48; MG1655OXA48, read-out: IMP MIC, with 4 μg/mL avibactam): 0.0781 µg/mL
MIC (E. coli MG1655OXA-48; MG1655OXA48, read-out: IMP MIC, with .25 μg/mL avibactam): 0.312 µg/mL
MIC (E. coli MG1655OXA-48; MG1655OXA48, read-out: IMP MIC, with .5 μg/mL avibactam): 0.156 µg/mL

Molecule: colistin [reference compound]
colistin concentration at which bacteria were completely killed off regardless of the presence of AMP (E. coli MG1655OXA-48; colistin, with or without AMP): At ≥2 μg/mL colistin, bacteria were completely
